According to patent US12161722B2, “Bifunctional heterocyclic compound having BTK degradation function via ubiquitin proteasome pathway, and use thereof” (KOREA RESEARCH INSTITUTE OF CHEMICAL TECHNOLOGY, priority 2021, dated 2024):

Experiments:
WT BTK protein = target: T1, WT BTK protein (Homo sapiens, UniProt Q06187); test: BTK protein degradation assay (Western blotting), WT BTK; assay type: cell-based; conditions: concentration range accounting for 50% degradation of WT BTK protein, TMD-8 or RAMOS cells, 24 hours
T1 construct: measured for intracellular BTK protein levels by Western blotting; endogenous in cells; host or cells: TMD-8 or RAMOS cells
Procedure, shortened: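 BTK levels were read by Western blotting (GAPDH and β-actin normalisers) in RIPA lysates of TMD-8 cells exposed to compounds for 24 h at 1×10^6 cells/mL. Results scored in ranges of the concentration producing 50% loss of WT BTK.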

C481S BTK protein = target: T2, C481S BTK protein (Homo sapiens, UniProt Q06187, C481S); test: BTK protein degradation assay (Western blotting), C481S BTK; assay type: cell-based; conditions: concentration range accounting for 50% degradation of C481S BTK protein, 293T BTK MUT (C481S) cells
T2 construct: expressed in transfected cells; host or cells: 293T BTK MUT (C481S) cells
Experimental: TMD-8, RAMOS, or 293T BTK MUT (C481S) cells were treated with the synthesized compounds and measured for intracellular BTK protein levels by Western blotting. The protocol of the experiment using TMD-8 cells is as follows.
The 12-well plates were treated as follows. A 10 mM stock was 1/10 diluted in series with DMSO ([…]) to form final concentrations of 10, 1, 0.1, 0.01, 0.001, and 0.0001 mM. The compounds with such concentrations were applied to cells, followed by harvesting the cells 24 hours later. For a negative control, a 1/10 dilution of DMSO in the medium (3 mL DMSO+27 mL medium) was used.
The 1-mL cell culture in each well was passed many times through a pipette and then transferred into a 1.5-mL microtube before centrifugation (500 g, 5 min, 4° C.). The supernatant was discarded and the cell pellet was washed with PBS. After centrifugation (500 g, 5 min, 4° C.) again, the supernatant was discarded and the cell pellet was taken.
A lysis buffer was prepared as follows. RIPA buffer (Biosesang, RC2038-050-00)+0.5 mM PMSF (SIGMA, P7626)+1×Protease/Phosphatase Inhibitor (Cell signaling, 5872S) was added in an amount […] per well and left for 30 minutes on ice (vortexing at 0 and 30 minutes) before sonication (5 cycles of pulse for 10 seconds and rest for 30 seconds, 70% amplification). The supernatant obtained by centrifugation (15000 g, 15 min, 4° C.) was transferred into a new microtube. Cells in each well of 96-well plates were 1/2 diluted with the RIPA buffer and incubated at 37° C. for 30 minutes with […] of a 50:1 mixture of BCA reagents A and B in BCA Protein Assay Kit (iNtRON, 21071). After being cooled for 10 minutes, the 96-well plates were measured for absorbance at 562 nm on the BioTek, SYNERGY H1 microplate reader. Samples were prepared by protein quantification based on the absorbance measurements and then boiled at 70° C. for 10 minutes. The sample buffer used in the case was prepared by mixing a NuPAGE or a Bolt 4× sample buffer (Invitrogen) and its 10× sample reducing agent depending on the gel to be used, and protein dilution was made in a RIPI buffer.
The samples were loaded in the same amount into a NuPAGE or Bolt Bis-tris 4-12% gradient gel and allowed to run therein (200 V, 35 minutes). The separated proteins were transferred onto a […] NC membrane, using Trans-blot Turbo (BIO-RAD) (1.3 A constant, 25V limit, 15 minutes). The membrane was blocked at room temperature for 1 hour with skim milk or Intercept Blocking Buffer (LI-COR, 927-60001):0.1% TBST=1:1. The membrane was incubated with Anti BTK Rabbit (1:1,000 in 5% skim milk/0.2% TBST, size: 77 kDa, Cell signaling Technology) at 4° C. overnight O/N or at room temperature for 2 hours and with Anti GAPDH Rabbit (1:10,000 in 5% BSA/0.2% TBST, size: 36 kDa, GENETEX) and Anti β-actin mouse (1:10,000 in 5% BSA/0.2% TBST, RT, size: 43 kDa, GENETEX) at room temperature for 1 or 3 hours. Then, the membrane was washed three times with 0.5% TBST for 5 minutes each time before incubation with the second antibody Anti-Rabbit IgG (1:5,000 in 5% Skim milk/TBST, CST), IRDye® 800CW Goat anti-Rabbit IgG Secondary Antibody (1:10,000 in 5% skim/TBST, RT 45 min), or IRDye® 680RD Goat anti-Mouse IgG Secondary Antibody (1:10,000 in 5% skim/TBST, RT 45 min) for 45 minutes at room temperature in a rocker. The membrane was washed five times with 0.5% TBST for 5 minutes in each time, followed by detection with LI-COR, Odyssey. In this regard, the detection proceeded, as it was, for house-keeping genes while using SuperSignal West Pico PLUS Chemiluminescent Substrate or SuperSignal West femto Maximum Sensitivity Substrate for BTK detection.
According to the concentration ranges of compounds accounting for 50% degradation of WT BTK protein and C481S BTK protein, the activities are expressed as +++(0.0001-0.01 μM), ++(0.01-1 μM), +(1-10 μM), −(>10 μM), and NT (not tested). […]

T1 sequence (Q06187 whole entry): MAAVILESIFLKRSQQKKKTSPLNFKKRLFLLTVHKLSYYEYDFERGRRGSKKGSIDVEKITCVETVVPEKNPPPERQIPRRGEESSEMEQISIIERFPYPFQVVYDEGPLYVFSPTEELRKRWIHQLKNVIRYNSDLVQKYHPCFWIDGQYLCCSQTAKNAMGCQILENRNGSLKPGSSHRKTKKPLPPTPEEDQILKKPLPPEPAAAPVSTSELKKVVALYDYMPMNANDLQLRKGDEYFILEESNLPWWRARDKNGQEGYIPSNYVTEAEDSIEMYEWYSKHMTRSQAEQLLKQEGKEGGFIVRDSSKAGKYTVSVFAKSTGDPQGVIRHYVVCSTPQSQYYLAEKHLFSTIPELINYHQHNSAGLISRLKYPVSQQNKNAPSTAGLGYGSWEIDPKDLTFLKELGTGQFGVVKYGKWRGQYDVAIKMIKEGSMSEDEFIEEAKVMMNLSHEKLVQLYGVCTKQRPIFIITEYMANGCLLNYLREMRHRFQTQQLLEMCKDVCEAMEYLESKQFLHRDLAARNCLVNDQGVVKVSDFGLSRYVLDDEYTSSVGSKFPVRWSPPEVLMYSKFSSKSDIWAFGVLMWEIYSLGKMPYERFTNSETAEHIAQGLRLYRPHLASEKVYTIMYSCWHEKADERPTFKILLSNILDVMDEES
T2 sequence (Q06187 whole entry C481S): as the sequence (Q06187 whole entry) above, with C481S counted along it

SMILES: Cc1cccc(C)c1Nc1nn(C)c2nc(Nc3ccc4c(c3)CN(C(=O)COCCOCCOCCOCCNc3cccc5c3C(=O)N(C3CCC(=O)NC3=O)C5=O)CC4)ncc12 (centres unmarked) [Compound 13]
- DC50 (WT BTK protein): 0.1 to 10 nM
- DC50 (C481S BTK protein): 1000 to 10000 nM

SMILES: Cc1cccc(C)c1Nc1nn(C)c2nc(Nc3ccc4c(c3)CN(C(=O)CCOCCOCCOCCOCCNc3cccc5c3C(=O)N(C3CCC(=O)NC3=O)C5=O)CC4)ncc12 (centres unmarked) [Compound 14]
- DC50 (WT BTK protein): 0.1 to 10 nM
- DC50 (C481S BTK protein): > 10000 nM

SMILES: Cc1cccc(C)c1Nc1nn(C)c2nc(Nc3ccc4c(c3)CN(C(=O)CCOCCOCCOCCOCCNc3ccc5c(c3)C(=O)N(C3CCC(=O)NC3=O)C5=O)CC4)ncc12 (centres unmarked) [Compound 15, 5-((15-(7-((3-((2,6-Dimethylphenyl)amino)-1-methyl-1H-pyrazolo[3,4-d]pyrimidin-6-yl)amino)-3,4-dihydroisoquinolin-2 (1H)-yl)-15-oxo-3,6,9,12-tetraoxapentadecyl)amino)-2-(2,6-dioxopiperidin-3-yl)isoindoline-1,3-dione]
- DC50 (WT BTK protein): 0.1 to 10 nM
- DC50 (C481S BTK protein): 1000 to 10000 nM

SMILES: Cc1cccc(C)c1Nc1nn(C)c2nc(Nc3ccc4c(c3)CN(C(=O)CCOCCOCCOCCOCCNC(=O)COc3ccc5c(c3)C(=O)N(C3CCC(=O)NC3=O)C5=O)CC4)ncc12 (centres unmarked) [Compound 16, N-(15-(7-((3-((2,6-Dimethylphenyl)amino)-1-methyl-1H-pyrazolo[3,4-d]pyrimidin-6-yl)amino)-3,4-dihydroisoquinolin-2 (1H)-yl)-15-oxo-3,6,9,12-tetraoxapentadecyl)-2-((2-(2,6-dioxopiperidin-3-yl)-1,3-dioxoisoindolin-5-yl)oxy)acetamide]
- DC50 (WT BTK protein): 0.1 to 10 nM
- DC50 (C481S BTK protein): 1000 to 10000 nM

SMILES: Cc1cccc(C)c1Nc1nn(C)c2nc(Nc3ccc4c(c3)CN(C(=O)CCOCCOCCOCCOCCNC(=O)COc3cccc5c3C(=O)N(C3CCC(=O)NC3=O)C5=O)CC4)ncc12 (centres unmarked) [Compound 17, N-(15-(7-((3-((2,6-Dimethylphenyl)amino)-1-methyl-1H-pyrazolo[3,4-d]pyrimidin-6-yl)amino)-3,4-dihydroisoquinolin-2 (1H)-yl)-15-oxo-3,6,9,12-tetraoxapentadecyl)-2-((2-(2,6-dioxopiperidin-3-yl)-1,3-dioxoisoindolin-4-yl)oxy)acetamide]
- DC50 (WT BTK protein): 0.1 to 10 nM
- DC50 (C481S BTK protein): > 10000 nM

SMILES: Cc1cccc(C)c1Nc1nn(C)c2nc(Nc3ccc4c(c3)CN(C(=O)CCOCCOCCOCCOCCNC(=O)CN3CCN(c5ccc6c(c5)C(=O)N(C5CCC(=O)NC5=O)C6=O)CC3)CC4)ncc12 (centres unmarked) [Compound 18]
- DC50 (WT BTK protein): 0.1 to 10 nM
- DC50 (C481S BTK protein): > 10000 nM

SMILES: Cc1cccc(C)c1Nc1nn(C)c2nc(Nc3ccc4c(c3)CN(C(=O)c3cn(CCOCCOCCOCCNC(=O)CNc5cccc6c5C(=O)N(C5CCC(=O)NC5=O)C6=O)nn3)CC4)ncc12 (centres unmarked) [Compound 19, N-(2-(2-(2-(2-(4-(7-((3-((2,6-Dimethylphenyl)amino)-1-methyl-1H-pyrazolo[3,4-d]pyrimidin-6-yl)amino)-1,2,3,4-tetrahydroisoquinoline-2-carbonyl)-1H-1,2,3-triazol-1-yl)ethoxy)ethoxy)ethoxy)ethyl)-2-((2-(2,6-dioxopiperidin-3-yl)-1,3-dioxoisoindolin-4-yl)amino)acetamide]
- DC50 (WT BTK protein): 10 to 1000 nM
- DC50 (C481S BTK protein): > 10000 nM

SMILES: Cc1cccc(C)c1Nc1nn(C)c2nc(Nc3ccc4c(c3)CN(CCOCCNC(=O)CN3CCN(c5ccc6c(c5)C(=O)N(C5CCC(=O)NC5=O)C6=O)CC3)CC4)ncc12 (centres unmarked) [Compound 20, N-(2-(2-(7-((3-((2,6-Dimethylphenyl)amino)-1-methyl-1H-pyrazolo[3,4-d]pyrimidin-6-yl)amino)-3,4-dihydroisoquinolin-2 (1H)-yl)ethoxy)ethyl)-2-(4-(2-(2,6-dioxopiperidin-3-yl)-1,3-dioxoisoindolin-5-yl)piperazin-1-yl)acetamide]
- DC50 (WT BTK protein): 0.1 to 10 nM
- DC50 (C481S BTK protein): 1000 to 10000 nM

SMILES: Cc1cccc(C)c1Nc1nn(C)c2nc(Nc3ccc4c(c3)CN(CCOCCNC(=O)C3CCN(c5ccc6c(c5)C(=O)N(C5CCC(=O)NC5=O)C6=O)CC3)CC4)ncc12 (centres unmarked) [Compound 21, N-(2-(2-(7-((3-((2,6-Dimethylphenyl)amino)-1-methyl-1H-pyrazolo[3,4-d]pyrimidin-6-yl)amino)-3,4-dihydroisoquinolin-2 (1H)-yl)ethoxy)ethyl)-1-(2-(2,6-dioxopiperidin-3-yl)-1,3-dioxoisoindolin-5-yl)piperidine-4-carboxamide]
- DC50 (WT BTK protein): 0.1 to 10 nM
- DC50 (C481S BTK protein): 1000 to 10000 nM

SMILES: Cc1cccc(C)c1Nc1nn(C)c2nc(Nc3ccc4c(c3)CN(C(=O)CCOCCOCCOCCOCCNC(=O)CNc3ccc5c(c3)C(=O)N(C3CCC(=O)NC3=O)C5=O)CC4)ncc12 (centres unmarked) [Compound 22, N-(15-(7-((3-((2,6-dimethylphenyl)amino)-1-methyl-1H-pyrazolo[3,4-d]pyrimidin-6-yl)amino)-3,4-dihydroisoquinolin-2 (1H)-yl)-15-oxo-3,6,9,12-tetraoxapentadecyl)-2-((2-(2,6-dioxopiperidin-3-yl)-1,3-dioxoisoindolin-5-yl)amino)acetamide]
- DC50 (WT BTK protein): 0.1 to 10 nM
- DC50 (C481S BTK protein): > 10000 nM

SMILES: Cc1cccc(C)c1Nc1nn(C)c2nc(Nc3ccc4c(c3)CN(CCOCCOCC(=O)Nc3ccc5c(c3)C(=O)N(C3CCC(=O)NC3=O)C5=O)CC4)ncc12 (centres unmarked) [Compound 23, 2-(2-(2-(7-((3-((2,6-Dimethylphenyl)amino)-1-methyl-1H-pyrazolo[3,4-d]pyrimidin-6-yl)amino)-3,4-dihydroisoquinolin-2 (1H)-yl)ethoxy)ethoxy)-N-(2-(2,6-dioxopiperidin-3-yl)-1,3-dioxoisoindolin-5-yl)acetamide]
- DC50 (WT BTK protein): 0.1 to 10 nM
- DC50 (C481S BTK protein): 1000 to 10000 nM

SMILES: Cc1cccc(C)c1Nc1nn(C)c2nc(Nc3ccc4c(c3)CN(CCOCCNC(=O)C3CCN(c5cccc6c5C(=O)N(C5CCC(=O)NC5=O)C6=O)CC3)CC4)ncc12 (centres unmarked) [Compound 24, N-(2-(2-(7-((3-((2,6-Dimethylphenyl)amino)-1-methyl-1H-pyrazolo[3,4-d]pyrimidin-6-yl)amino)-3,4-dihydroisoquinolin-2 (1H)-yl)ethoxy)ethyl)-1-(2-(2,6-dioxopiperidin-3-yl)-1,3-dioxoisoindolin-4-yl)piperidine-4-carboxamide]
- DC50 (WT BTK protein): 0.1 to 10 nM
- DC50 (C481S BTK protein): 1000 to 10000 nM

SMILES: Cc1cccc(C)c1Nc1nn(C)c2nc(Nc3ccc4c(c3)CN(CCOCCNC(=O)COc3ccc5c(c3)C(=O)N(C3CCC(=O)NC3=O)C5=O)CC4)ncc12 (centres unmarked) [Compound 25, N-(2-(2-(7-((3-((2,6-Dimethylphenyl)amino)-1-methyl-1H-pyrazolo[3,4-d]pyrimidin-6-yl)amino)-3,4-dihydroisoquinolin-2 (1H)-yl)ethoxy)ethyl)-2-((2-(2,6-dioxopiperidin-3-yl)-1,3-dioxoisoindolin-5-yl)oxy)acetamide]
- DC50 (WT BTK protein): 0.1 to 10 nM
- DC50 (C481S BTK protein): 1000 to 10000 nM
